Experimental data taken from ChEMBL document CHEMBL5236579, “Hydrophobicity Determines the Bacterial Killing Rate of α-Helical Antimicrobial Peptides and Influences the Bacterial Resistance Development” (J Med Chem, 2022).
Values after ≈ are worked out from the molar mass of the structure shown. Active and inactive are the calls of the source. The rule behind the calls is not given here. Where a SMILES comes first, the peptide text is derived from it.

What was measured:
Cell membrane [1] = assay: Induction of inner membrane permeabilization in Vibrio parahaemolyticus ATCC17802 assessed as increase in PI fluorescence intensity at 5 times MIC by propidium iodide penetration assay; assay type: cell membranes; settings: time <= 200.0 min
Escherichia coli = assay: Antimicrobial activity against Escherichia coli ATCC27622 by two fold broth microdilution method; assay type: functional
Vibrio parahaemolyticus [2] = assay: Bactericidal activity against Vibrio parahaemolyticus ATCC17802 assessed as killing rate at 0.5 X MIC by measuring time limit of detection by bacterial killing kinetic assay; assay type: functional
Staphylococcus aureus [3] = assay: Antimicrobial activity against Staphylococcus aureus ATCC25923 by two fold broth microdilution method; assay type: functional; settings: read-out: MIC
Bacillus cereus = assay: Antimicrobial activity against clinical isolates Bacillus cereus by two fold broth microdilution method; assay type: functional
Vibrio parahaemolyticus [4] = assay: Antimicrobial activity against Vibrio parahaemolyticus ATCC17802 by two fold broth microdilution method; assay type: functional
Staphylococcus aureus [5] = assay: Antimicrobial activity against clinical isolates Staphylococcus aureus by two fold broth microdilution method; assay type: functional
Cell membrane [6] = assay: Induction of inner membrane permeabilization in Vibrio parahaemolyticus ATCC17802 at 5 times MIC measured upto 200 mins by propidium iodide penetration assay; assay type: cell membranes
Cell membrane [7] = assay: Induction of inner membrane permeabilization in Vibrio parahaemolyticus ATCC17802 assessed as calcein leakage at 5 times MIC by calcein-AM leakage assay; assay type: cell membranes; settings: time <= 200.0 min, TDE = time-dependent effect
Vibrio parahaemolyticus [8] = assay: Induction of morphological changes in Vibrio parahaemolyticus ATCC17802 assessed as surface fibrosis incubated at 5 times MIC and measured after 180 mins by scanning electron microscopy based analysis; assay type: functional, organism-based
Vibrio parahaemolyticus [9] = assay: Induction of morphological changes in Vibrio parahaemolyticus ATCC17802 assessed as cellular inclusion leakage incubated at 5 times MIC and measured after 180 mins by scanning electron microscopy based analysis; assay type: functional, organism-based
HaCaT = assay: Cytotoxicity against human HaCaT cells incubated for 48 hrs by MTT assay; assay type: toxicity, cell-based; settings: dose < 250 µg/ml
Peritoneal macrophage = assay: Cytotoxicity against mouse peritoneal macrophage cells incubated for 48 hrs by MTT assay; assay type: toxicity, cell-based; settings: dose < 250 µg/ml
Vibrio parahaemolyticus [10] = assay: Induction of morphological changes in Vibrio parahaemolyticus ATCC17802 assessed as massive cell collapse incubated at 5 times MIC and measured after 180 mins by scanning electron microscopy based analysis; assay type: functional, organism-based

| MIC (Escherichia coli) [µg/mL] | MIC (Staphylococcus aureus [3]) [µg/mL] | MIC (Bacillus cereus) [µg/mL] | MIC (Staphylococcus aureus [5]) [µg/mL] | SMILES | Activity (Cell membrane [1]) | Time (Vibrio parahaemolyticus [2]) [min] | MIC (Vibrio parahaemolyticus [4]) [µg/mL] | Activity (Cell membrane [6]) | Activity (Cell membrane [7]) | Activity (Vibrio parahaemolyticus [8]) | Activity (Vibrio parahaemolyticus [9]) | Activity (HaCaT) | Activity (Peritoneal macrophage) | Activity (Vibrio parahaemolyticus [10]) |
| --- | --- | --- | --- | --- | --- | --- | --- | --- | --- | --- | --- | --- | --- | --- |
| 18.8 (≈ 8.8 µM) | 4.69 (≈ 2.2 µM) | 9.38 (≈ 4.4 µM) | 18.8 (≈ 8.8 µM) | CC[C@H](C)[C@H](NC(=O)[C@H](CCCCN)NC(=O)[C@H](CCCNC(=N)N)NC(=O)[C@H](CCCNC(=N)N)NC(=O)[C@H](CC(C)C)NC(=O)[C@H](CCCCN)NC(=O)[C@H](CCCCN)NC(=O)[C@H](Cc1ccccc1)NC(=O)[C@H](CC(C)C)NC(=O)CNC(=O)[C@@H](N)CCCNC(=N)N)C(=O)N[C@@H](CCCCN)C(=O)N[C@@H](CCCCN)C(=O)NCC(=O)N[C@@H](Cc1ccccc1)C(=O)N[C@@H](CCCCN)C(=O)N[C@@H](CCCCN)C(=O)O (H-RGLFKKLRRKIKKGFKK-OH) | Active | >180 | 4.69 (≈ 2.2 µM) | – | – | – | – | – | – | – |
| 4.69 (≈ 2.26 µM) | 2.34 (≈ 1.13 µM) | 9.38 (≈ 4.52 µM) | 18.8 (≈ 9.04 µM) | CC[C@H](C)[C@H](NC(=O)[C@H](CC(C)C)NC(=O)[C@H](CCCNC(=N)N)NC(=O)[C@H](CC(C)C)NC(=O)[C@H](CC(C)C)NC(=O)[C@H](CCCCN)NC(=O)[C@H](CCCCN)NC(=O)[C@H](Cc1ccccc1)NC(=O)[C@H](CC(C)C)NC(=O)CNC(=O)[C@@H](N)CCCNC(=N)N)C(=O)N[C@@H](CCCCN)C(=O)N[C@@H](CCCCN)C(=O)NCC(=O)N[C@@H](Cc1ccccc1)C(=O)N[C@@H](CCCCN)C(=O)N[C@@H](CCCCN)C(=O)O (H-RGLFKKLLRLIKKGFKK-OH) | Active | 60 | 4.69 (≈ 2.26 µM) | Active | Tde | – | – | – | – | – |
| 9.38 (≈ 4.93 µM) | 4.69 (≈ 2.46 µM) | 9.38 (≈ 4.93 µM) | 18.8 (≈ 9.85 µM) | CC[C@H](C)[C@H](NC(=O)[C@H](C)NC(=O)[C@H](CCCNC(=N)N)NC(=O)[C@H](C)NC(=O)[C@H](CC(C)C)NC(=O)[C@H](CCCCN)NC(=O)[C@H](CCCCN)NC(=O)[C@H](Cc1ccccc1)NC(=O)[C@H](CC(C)C)NC(=O)CNC(=O)[C@H](C)N)C(=O)N[C@@H](CCCCN)C(=O)N[C@@H](CCCCN)C(=O)NCC(=O)N[C@@H](Cc1ccccc1)C(=O)N[C@@H](CCCCN)C(=O)N[C@@H](CCCCN)C(=O)O (H-AGLFKKLARAIKKGFKK-OH) | Active | >180 | 4.69 (≈ 2.46 µM) | – | – | Active | Active | Dose-Dependent Effect | Dose-Dependent Effect | Active |
| 9.38 (≈ 4.96 µM) | 4.69 (≈ 2.48 µM) | 9.38 (≈ 4.96 µM) | 18.8 (≈ 9.92 µM) | CC[C@H](C)[C@H](NC(=O)[C@H](C)NC(=O)[C@H](CCCNC(=N)N)NC(=O)[C@H](C)NC(=O)[C@H](CC(C)C)NC(=O)[C@H](CCCCN)NC(=O)[C@H](CCCCN)NC(=O)[C@H](Cc1ccccc1)NC(=O)[C@H](CC(C)C)NC(=O)CNC(=O)[C@H](C)N)C(=O)N[C@@H](CCCCN)C(=O)N[C@@H](CCCCN)C(=O)NCC(=O)N[C@@H](Cc1ccccc1)C(=O)N[C@@H](CCCCN)C(=O)N[C@@H](CC(C)C)C(=O)O (H-AGLFKKLARAIKKGFKL-OH) | Active | >180 | 4.69 (≈ 2.48 µM) | – | – | – | – | – | – | – |

Second part, the compound before the results:

| SMILES | MIC (Escherichia coli) [µg/mL] | MIC (Staphylococcus aureus [3]) [µg/mL] | MIC (Bacillus cereus) [µg/mL] | MIC (Staphylococcus aureus [5]) [µg/mL] | Activity (Cell membrane [1]) | Time (Vibrio parahaemolyticus [2]) [min] | MIC (Vibrio parahaemolyticus [4]) [µg/mL] | Activity (Cell membrane [6]) | Activity (Cell membrane [7]) | Activity (Vibrio parahaemolyticus [8]) | Activity (Vibrio parahaemolyticus [9]) | Activity (HaCaT) | Activity (Peritoneal macrophage) | Activity (Vibrio parahaemolyticus [10]) |
| --- | --- | --- | --- | --- | --- | --- | --- | --- | --- | --- | --- | --- | --- | --- |
| CC[C@H](C)[C@H](NC(=O)[C@H](CCCCN)NC(=O)[C@H](CC(C)C)NC(=O)[C@H](C)NC(=O)CNC(=O)[C@H](CC(N)=O)NC(=O)[C@H](CC(C)C)NC(=O)[C@@H](NC(=O)[C@H](CCCCN)NC(=O)[C@H](CCCCN)NC(=O)[C@H](Cc1c[nH]c2ccccc12)NC(=O)[C@H](Cc1ccccc1)NC(=O)[C@H](CCCCN)NC(=O)[C@H](CCCNC(=N)N)NC(=O)[C@H](CCCNC(=N)N)NC(=O)[C@@H](N)[C@@H](C)O)C(C)C)C(=O)N[C@@H](C)C(=O)N1CCC[C@H]1C(=O)N[C@@H](Cc1ccccc1)C(=O)N[C@@H](CC(C)C)C(=O)N[C@@H](CC(C)C)C(=O)NCC(=O)O (H-TRRKFWKKVLNGALKIAPFLLG-OH) | 9.38 (≈ 3.67 µM) | 2.34 (≈ 0.915 µM) | 9.38 (≈ 3.67 µM) | 9.38 (≈ 3.67 µM) | – | 15 | 4.69 (≈ 1.83 µM) | – | – | – | – | – | – | – |
| CC[C@H](C)[C@H](NC(=O)[C@H](C)NC(=O)[C@H](CCCNC(=N)N)NC(=O)[C@H](C)NC(=O)[C@H](CC(C)C)NC(=O)[C@H](CCCCN)NC(=O)[C@H](CCCCN)NC(=O)[C@H](Cc1ccccc1)NC(=O)[C@H](CC(C)C)NC(=O)CNC(=O)[C@H](C)N)C(=O)N[C@@H](C)C(=O)N[C@@H](CCCCN)C(=O)NCC(=O)N[C@@H](Cc1ccccc1)C(=O)N[C@@H](CCCCN)C(=O)N[C@@H](C)C(=O)O (H-AGLFKKLARAIAKGFKA-OH) | 9.38 (≈ 5.24 µM) | 9.38 (≈ 5.24 µM) | 18.8 (≈ 10.5 µM) | 18.8 (≈ 10.5 µM) | – | >180 | 4.69 (≈ 2.62 µM) | – | – | – | – | – | – | – |
